Test results reported in US10578610B2, “Peptide regulators of mitochondrial fusion and methods of use” (priority 2016, dated 2020).
Square brackets hold non-standard residues; d marks the D form. Ends that are not written are not given here. pS = N[C@@H](COP(=O)(O)O)C(=O)O

Tests used:
WT MEFs and Mfn2 KO MEFs = experiment: Parkin recruitment and mitophagy induced by mitochondrial depolarization, adenoviral expression; type: cell-based, murine; conditions: data not shown
Description: (§1) MEFs or neurons were grown on chamber slides and infected with recombinant adenoviri for 48-72 hours unless otherwise indicated. MEFs were stained with MitoTracker Green (200 nM, Invitrogen M7514) and Blue Hoechst (10 mg/ml, Invitrogen H3570), with or without tetramethylrhodamine ethyl ester (TMRE; 200 nM, Invitrogen T-669). Neuronal mitochondria were labeled with adenoviral-expressed mitoGFP plus TMRE, or with adeno-mitoDsRed for time-lapse studies. Cover slips were loaded onto a chamber (Warner instrument, RC-40LP) in modified Krebs-Henseleit buffer (138 mM NaCl, 3.7 mM KCl, 1.2 mM KH2PO4, 15 mM Glucose, 20 mM HEPES and 1 mM CaCl2) at room temperature and visualized on a Nikon Ti Confocal microscope equipped with a 60×1.3 NA oil immersion objective. For mitophagy studies MEFs were stained with MitoTracker Green and infected with adeno-mcherry Parkin or stained with LysoTracker Deep Red (50 nM, Invitrogen L-7528); carbonylcyanide p-trifluoromethoxyphenylhydrazone (FCCP, 10 μM for 1 hour) was applied as a positive control. Mitochondrial fusion was measured at 2 and 6 hours after PEG-mediated cell fusion of MEFs treated 48 hours previously with adeno-mitoGFP or adeno-mitoDsRed (Chen et al., 2005, J Biol Chem, 280:26185-26192). Laser confocal fluorescence was excited with 561 nm (MitoTracker Green, GFP, FITC), 637 nm (TMRE, LysoTracker Red, mcherry-Parkin, MitoTracker Orange) or 408 nm (Blue Hoechst) laser diodes. Image analysis—Mitochondrial aspect ratio was calculated using automated edge detection and Image J software (Song et al., 2015, Cell Metab, 21:273-285). Mitochondrial depolarization was calculated as % of green mitochondria visualized on MitoTracker Green and TMRE merged images, expressed as green/(green+yellow mitochondria)×100. Parkin aggregation was calculated as % of cells with mitochondrial clumping of mcherry-Parkin (Song et al., 2015, Cell Metab, 21:273-285). Lysosomal engulfment of mitochondria was identified by colocalization of LysoTracker Red and MitoTracker Green (Song et al., 2015, Cell Metab, 21:273-285).
Also studied were the effects of the adenoviral expression of WT Mfn2, HR1 peptide, adeno367-384 and its glycine variant and adeno398-418 and its glycine variant on Parkin recruitment and mitophagy induced by mitochondrial depolarization which are also impaced by the Mfn1 and Mfn2 proteins (Chen et al., 2013, Science, 340:471-475; Gong G. et al., 2015, Science, 350:aad2459). These studies were performed using WT MEFs and Mfn2 KO MEFs.

[1] = tested on: murine embryonic fibroblasts (MEFs) expressing Mfn1 and/or Mfn2; experiment: Mitochondrial aspect ratio and polarization in MEFs infected with adenovirus expressing Mfn2 HR1 peptides; type: cell-based; conditions: adenoviral expression; for mitochondrial aspect ratio (length/width; an index of mitochondrial fusion): MOI 100, WT and Mfn2 null MEFs, vs Ad-Null/β-gal control; for mitochondrial aspect ratio (elongation/shortening) compared with adeno-HR1 or Mfn deletion: WT, Mfn1 KO, Mfn2 KO, Mfn1/Mfn2 DKO MEFs; for mitochondrial polarization status: WT MEFs, TMRE
Description: The effect of each of the peptides listed in Table 1 on mitochondrial function was tested in a cell culture system using murine embryonic fibroblasts (MEFs) as described in Example 4. Wild-type MEFs express both Mfn1 and Mfn2. Also used were MEFs in which the Mfn2 gene was knocked out (MEF Mfn2 KO). The details of the experiments are provided in Example 3. In these experiments, the MEFs were infected with adenovirus (AV) engineered to express one of the peptides or full-length Mfn2 as a control. Mitochondrial fusion activity was measured using confocal microscopy and quantitative analysis of the mitochondrial aspect ratio which is a measurement of mitochondria length/width and is an accepted index of mitochondrial fusion. […] As with all confocal microscopic images provided herein, treated cells were stained to allow quantitative assessment of mitochondrial aspect ratio and polarization using methods routine in the art. In Examples 4-8, MitoTracker Green is used to stain the mitochondria to allow measurement of mitochondrial length and width to determine the aspect ratio. Red TMRE is used to measure mitochondrial polarization (membrane potential). Blue Hoechst stains nuclei.
Empty adenovirus (Ad-CMV-Null; #1300) and adenoviri expressing β-Galactosidase (Ad-CMV-b-Gal; #1080) or Cre recombinase (Ad-CMV-iCre; #1045) were from Vector Biolabs. Adenoviral expression vectors for hMfn2 HR1 and the minipeptides and Gly or Pro mutants were generated and amplified using standard methods. Adenoviral vectors were added to MEFs at 50% confluence at an MOI of 100.
as §1
First, an adenovirus which recombinantly expressed the hMfn2 HR1 binding fragment (adeno HR1) was introduced into MEFs. It was reasoned that competition of the intra-molecular HR1-HR2 interaction by free HR1 fragment would increase mitochondrial fusion. […]

WT MEFs = type: cell-based, murine; conditions: WT MEFs; varying concentrations / time course
Description: as §1
TAT47-57 is a well-characterized “carrier” peptide able to promote active cellular peptide uptake. Specifically, a linear peptide was constructed in which the hMfn2 modulatory peptide was linked by a peptide bond at its C-terminus to a Gly-Gly dipeptide linker whose C-terminus was linked by a peptide bond to the TAT47-57 peptide having the sequence YGRKKRRQRRR (SEQ ID NO:25). The resultant linear fusion-promoting peptide conjugate comprises the sequence […] (SEQ ID NO:23). The fusion-inhibiting linear peptide has the sequence […] (SEQ ID NO:24). Except for dose-response studies, stock concentrations of TAT-minipeptides in sterile water were applied to cultured MEFs at a dilution factor of 1:2000 to achieve final concentrations of 1 or 5 μM.
The functional consequences of the Mfn2 HR1-derived peptides were defined after synthesizing them as C-terminal TAT47-57 conjugates to promote active cellular uptake. Mitochondrial fusion can be detected by mixing of organellar contents (Chen et al., 2005, J Biol Chem, 280:26185-26192). […] (FIG. 8A, scale bar is 20 microns). Mitochondrial aspect ratio changed in parallel with mitochondrial mixing (FIG. 8B).
Experiments were performed with these shortened variants fused to a carrier peptide via a linker according to the methods described in Example 5 above. Wildtype MEFs were treated with varying concentrations of peptide fusion constructs described in Table 4 and mitochondrial aspect ratios determined. A dose response curve for TetherX-N and -C variants are shown in FIG. 17A (squares are data for TetherX-N and circles are for TetherX-C). The dose response curve for GoFuse-N and -C variants are shown in FIG. 17B (squares are for GoFuse-N and circles are for GoFuse-C).

mitochondrial fusion = experiment: Alanine scanning of TetherX-1 and Go-Fuse peptides, effect on mitochondrial fusion in cells; type: cell-based; conditions: variants linked to TAT carrier via GG linker; compared with SEQ ID NO:48 or 50
Description: Alanine scanning mutagenesis experiments were performed in order to identify amino acids critical for the function of the TetherX-1 and Go-Fuse peptides. Alanine was individually substituted for each amino acid in the Tetherx-1 and Go-Fuse peptides and the modified peptides, linked to the TAT carrier peptide via a GG linker, were administered to cells and the effect on mitochondrial fusion measured. Table 5 lists Go-Fuse variants which maintained fusion-promoting activity (activity similar to that of SEQ ID NO:48 or 50) while Table 6 lists variant Go-Fuse peptides in which substitutions had no effect (substitution of a non-critical amino acid).

| Substance | Parkin recruitment and mitophagy induced by mitochondrial depolarization (WT MEFs and Mfn2 KO MEFs) | mitochondrial aspect ratio (length/width; an index of mitochondrial fusion) [1] | mitochondrial aspect ratio (effect of TAT fusion construct) (WT MEFs) | other results |
| --- | --- | --- | --- | --- |
| FQNFERRFEECISQSAVKTKFEQHTVRAKQIAEAVRLIMDSLHMAAREQQVYCEEMREERQDRLKFIDKQLELLAQDYKLRIKQ [adeno-HR1] | No significant effects | increased mitochondrial aspect ratio |  | mitochondrial aspect ratio (elongation/shortening) compared with adeno-HR1 or Mfn deletion [1]: altered mitochondrial aspect ratio |
| GELLAQDYKLRGGYGRKKRRQRRR [TetherX-C] |  |  | provoked mitochondrial fragmentation |  |
| GIMD(p)SLHMAARGGYGRKKRRQRRR (GIMD[pS]LHMAARGGYGRKKRRQRRR) [SEQ ID NO:54] |  |  |  | fusion-promoting activity (Mfn agonist activity) of Go-Fuse variants (mitochondrial fusion): statistically active |
| GIMDSLHMAARGGYGRKKRRQRRR [GoFuse-C] |  |  | induced mitochondrial elongation |  |
| QDRLKFIDKQGELLAQDYKLR [adeno398-418Gly, Mfn2 HR1 minipeptide, expressed in cells from adenoviral vector] | did not adversely impact | potently suppressed fusion |  | mitochondrial polarization status [1]: did not adversely impact mitochondrial polarization status |
| QDRLKFIDKQGGYGRKKRRQRRR [TetherX-N, N-terminal fragment of TetherX-1 fused to TAT carrier, as tested] |  |  | exhibited little activity |  |
| QDRLKFIDKQLELLAQDYKLR (listed as Homo sapiens) [adeno398-418] | No significant effects |  |  |  |
| QIAEAVRGGYGRKKRRQRRRR [GoFuse-N, N-terminal fragment of GoFuse-1 fused to TAT carrier, as tested] |  |  | lacked fusion-promoting activity |  |
| QIAEAVRGIMDSLHMAAR [adeno367-384Gly, Mfn2 HR1 minipeptide, expressed in cells from adenoviral vector] | did not adversely impact | promoted fusion |  | mitochondrial polarization status [1]: did not adversely impact mitochondrial polarization status; mitochondrial aspect ratio (elongation/shortening) compared with adeno-HR1 or Mfn deletion [1]: comparable to that produced by adeno-HR1 |
| QIAEAVRLIMDSLHMAAR (listed as Homo sapiens) [adeno367-384] | No significant effects |  |  |  |
| RQVSTAMAEEIRRLSVLVDDY (listed as Homo sapiens) [adeno428-448, non-HR1 control peptide] |  | did not affect mitochondrial fusion |  |  |
